Measurements published in ChEMBL document CHEMBL1697781, “Assessment of the health effects of chemicals in humans: II. Construction of an adverse effects database for QSAR modeling” (Curr Drug Discov Technol, 2004).
Numbered stars: 1 amine (or outer) side, 2 acyl side, 3 side chain; on linkers, the order of the positions; unused ones are H or OH. Bridge positions count the residues as written; N and C are the ends. Square brackets hold non-standard residues; d marks the D form. Peptide text beside a SMILES is read from it. I, II: the chains in the order shown. Actinocin(9to1) = Cc1c2oc3c(C)ccc(C(=O)[*:1])c3nc-2c(C(=O)[*:2])c(N)c1=O; NMeV = CN[C@H](C(=O)O)C(C)C; Sar = CNCC(=O)O

Tests used:
Conditions in all cases: human; call rule not given here
Hepatotoxicity [1] = test: FDA HLAED, serum glutamic oxaloacetic transaminase (SGOT) increase
Hepatotoxicity [2] = test: FDA HLAED, alkaline phosphatase increase
Hepatotoxicity [3] = test: FDA HLAED, serum glutamic pyruvic transaminase (SGPT) increase
Hepatotoxicity [4] = test: FDA HLAED, liver enzyme composite activity
Hepatotoxicity [5] = test: FDA HLAED, gamma-glutamyl transferase (GGT) increase

SMILES | SGOT Increase - Activity Score (Hepatotoxicity [1]) | SGOT Increase - Number of Reports (Hepatotoxicity [1]) | Alkaline Phosphatase Increase - Activity Score (Hepatotoxicity [2]) | Alkaline Phosphatase Increase - Number of Reports (Hepatotoxicity [2]) | SGPT Increase - Activity Score (Hepatotoxicity [3]) | SGPT Increase - Number of Reports (Hepatotoxicity [3]) | Composite Activity - Active (Hepatotoxicity [4]) | Composite Activity - Marginal (Hepatotoxicity [4]) | Composite Activity - Score (Hepatotoxicity [4]) | GGT Increase - Activity Score (Hepatotoxicity [5]) | GGT Increase - Number of Reports (Hepatotoxicity [5]) | SGOT Increase - Index Value (Hepatotoxicity [1]) | Alkaline Phosphatase Increase - Index Value (Hepatotoxicity [2]) | SGPT Increase - Index Value (Hepatotoxicity [3]) | Composite Activity - Active (Hepatotoxicity [4]; Liver) | Composite Activity - Marginal (Hepatotoxicity [4]; Liver) | Composite Activity - Score (Hepatotoxicity [4]; Liver) | GGT Increase - Index Value (Hepatotoxicity [5])
NC(=O)c1ncn([C@@H]2O[C@H](CO)[C@@H](O)[C@H]2O)n1 [RIBAVIRIN] | Inactive | < 4 | Inactive | < 4 | Inactive | < 4 | 0 | 0 | Inactive | Inactive | < 4 |  |  |  |  |  |  | 
COc1ccc2c(c1)c(CC(=O)O)c(C)n2C(=O)c1ccc(Cl)cc1 [INDOMETHACIN] | Marginally Active | >= 4 | Marginally Active | >= 4 |  |  | 0 | 2 |  |  |  | 3.8 | 3.1 |  |  |  |  | 
CC(C)Cc1ccc(C(C)C(=O)O)cc1 (stereo unspecified) [IBUPROFEN] | Marginally Active | >= 4 | Marginally Active | >= 4 | Marginally Active | >= 4 | 0 | 3 |  |  |  | No Shipping Units | No Shipping Units | No Shipping Units |  |  |  | 
Clc1cccc(Cl)c1N=C1NCCN1 [CLONIDINE] |  |  | Active | >= 4 | Active | >= 4 |  |  |  | Active | >= 4 |  | 11.5 | 7.6 | 2 | 0 | Active | 9.5
CC(=O)CC(c1ccccc1)c1c(O)c2ccccc2oc1=O (stereo unspecified) [WARFARIN] | Marginally Active | >= 4 | Marginally Active | >= 4 | Marginally Active | >= 4 | 0 | 3 |  |  |  | No Shipping Units | No Shipping Units | No Shipping Units |  |  |  | 
NNCCc1ccccc1 [PHENELZINE] | Active | >= 4 |  |  | Active | >= 4 |  |  |  | Active | >= 4 | 4.9 |  | 4.9 | 3 | 0 | Active | 4.9
Nc1ccn([C@@H]2O[C@H](CO)[C@@H](O)[C@@H]2O)c(=O)n1 [CYTARABINE] | Active | >= 4 | Active | >= 4 | Active | >= 4 |  |  |  |  |  | 6.1 | 4.1 | 4.1 | 3 | 0 | Active | 
CC[C@H]1OC(=O)[C@H](C)[C@@H](O[C@H]2C[C@@](C)(OC)[C@@H](O)[C@H](C)O2)[C@H](C)[C@@H](O[C@@H]2O[C@H](C)C[C@H](N(C)C)[C@H]2O)[C@](C)(O)C[C@@H](C)C(=O)[C@H](C)[C@@H](O)[C@]1(C)O [ERYTHROMYCIN] | Active | >= 4 | Active | >= 4 | Active | >= 4 | 3 | 0 | Active |  |  | 7.9 | 7.3 | 8.5 |  |  |  | 
CCCCCCCCCCCCCCCCCC(=O)O.CC[C@H]1OC(=O)[C@H](C)[C@@H](O[C@H]2C[C@@](C)(OC)[C@@H](O)[C@H](C)O2)[C@H](C)[C@@H](O[C@@H]2O[C@H](C)C[C@H](N(C)C)[C@H]2OC(C)=O)[C@](C)(O)C[C@@H](C)C(=O)[C@H](C)[C@@H](O)[C@]1(C)O [ERYTHROMYCIN ACISTRATE] | Active | >= 4 | Active | >= 4 | Active | >= 4 | 3 | 0 | Active |  |  | 7.9 | 7.3 | 8.5 |  |  |  | 
CCOC(=O)CCC(=O)O[C@H]1[C@H](O[C@@H]2[C@@H](C)[C@H](O[C@H]3C[C@@](C)(OC)[C@@H](O)[C@H](C)O3)[C@@H](C)C(=O)O[C@H](CC)[C@@](C)(O)[C@H](O)[C@@H](C)C(=O)[C@H](C)C[C@@]2(C)O)O[C@H](C)C[C@@H]1N(C)C [ERYTHROMYCIN ETHYLSUCCINATE] | Active | >= 4 | Active | >= 4 | Active | >= 4 | 3 | 0 | Active |  |  | 7.9 | 7.3 | 8.5 |  |  |  | 
NCC(CC(=O)O)c1ccc(Cl)cc1 (stereo unspecified) [BACLOFEN] | Active | >= 4 | Active | >= 4 |  |  | 2 | 0 | Active |  |  | 5.4 | 5.4 |  |  |  |  | 
CCC(=O)O[C@H]1[C@H](O[C@@H]2[C@@H](C)[C@H](O[C@H]3C[C@@](C)(OC)[C@@H](O)[C@H](C)O3)[C@@H](C)C(=O)O[C@H](CC)[C@@](C)(O)[C@H](O)[C@@H](C)C(=O)[C@H](C)C[C@@]2(C)O)O[C@H](C)C[C@@H]1N(C)C [ERYTHROMYCIN PROPIONATE] | Active | >= 4 | Active | >= 4 | Active | >= 4 | 3 | 0 | Active |  |  | 7.9 | 7.3 | 8.5 |  |  |  | 
Cc1cccc(Nc2ccccc2C(=O)O)c1C [MEFENAMIC ACID] | Active | >= 4 |  |  | Active | < 4 |  |  |  |  |  | 26 |  | 19.5 | 2 | 0 | Active | 
CCN(CC)CCOc1ccc(/C(=C(/Cl)c2ccccc2)c2ccccc2)cc1 [ENCLOMIPHENE] | Active | >= 4 |  |  | Active | >= 4 | 3 | 0 | Active | Active | >= 4 | 18.8 |  | 25 |  |  |  | 15.6
CN(C)CCC=C1c2ccccc2COc2ccccc21 [DOXEPIN] |  |  | Active | < 4 |  |  | 2 | 0 | Active | Active | < 4 |  | 434.8 |  |  |  |  | 434.8
NC(=O)N1c2ccccc2C=Cc2ccccc21 [CARBAMAZEPINE] |  |  | Marginally Active | >= 4 |  |  | 1 | 1 |  | Active | >= 4 |  | 3.3 |  |  |  |  | 4.4
Cc1c2oc3c(C)ccc(C(=O)N[C@@H]4C(=O)N[C@H](C(C)C)C(=O)N5CCC[C@H]5C(=O)N(C)CC(=O)N(C)[C@@H](C(C)C)C(=O)O[C@@H]4C)c3nc-2c(C(=O)N[C@@H]2C(=O)N[C@H](C(C)C)C(=O)N3CCC[C@H]3C(=O)N(C)CC(=O)N(C)[C@@H](C(C)C)C(=O)O[C@@H]2C)c(N)c1=O [DACTINOMYCIN] (I: T[dV]P[Sar][NMeV] / II: T[dV]P[Sar][NMeV]; ester I:1-I:C, II:1-II:C; linker I:N-II:N via Actinocin(9to1)) | Active | >= 4 |  |  | Active | >= 4 | 2 | 0 | Active |  |  | 29.6 |  | 23.7 |  |  |  | 
